From patent US6399349B1, “Human aminopeptidase P gene” (priority 1997, dated 2002)
Where two headings read alike, the source gives them in different places. Where no end group is shown, it is not given here. [ ]: non-standard residue; d: D form. Hyp = O=C(O)[C@@H]1C[C@@H](O)CN1

What was measured:
AmP and ACE = test: Mean systemic arterial blood pressure effects of BK injected i.v. or i.a. (log dose-response curves)
Experimental: To the extent that pulmonary AmP contributes to BK inactivation, saturation of AmP with an inhibitor or alternative substrate should, in effect, potentiate blood pressure effects of i.v. BK.
To clarify relative contributions of ACE and AmP to the metabolic fate of BK administered i.v., blood pressure effects of i.v. BK under control conditions and then after administration of a long-acting ACE inhibitor, RAC-X-65, were compared. After ACE inhibition, BK was injected (i.v. and i.a.) alone or BK co-mixed with APPBz at a dose capable of saturating AmP (2 μmol/kg).

AmP = settings: cited from earlier work
Pig kidney AmP = molecular target: T1, Pig kidney AmP (Sus scrofa, UniProt Q95333); settings: concentration that derivatizes two H residues per molecule of AmP; cited from earlier work
T1 construct: host or cells: pig kidney
T1 sequence (Q95333 22-649): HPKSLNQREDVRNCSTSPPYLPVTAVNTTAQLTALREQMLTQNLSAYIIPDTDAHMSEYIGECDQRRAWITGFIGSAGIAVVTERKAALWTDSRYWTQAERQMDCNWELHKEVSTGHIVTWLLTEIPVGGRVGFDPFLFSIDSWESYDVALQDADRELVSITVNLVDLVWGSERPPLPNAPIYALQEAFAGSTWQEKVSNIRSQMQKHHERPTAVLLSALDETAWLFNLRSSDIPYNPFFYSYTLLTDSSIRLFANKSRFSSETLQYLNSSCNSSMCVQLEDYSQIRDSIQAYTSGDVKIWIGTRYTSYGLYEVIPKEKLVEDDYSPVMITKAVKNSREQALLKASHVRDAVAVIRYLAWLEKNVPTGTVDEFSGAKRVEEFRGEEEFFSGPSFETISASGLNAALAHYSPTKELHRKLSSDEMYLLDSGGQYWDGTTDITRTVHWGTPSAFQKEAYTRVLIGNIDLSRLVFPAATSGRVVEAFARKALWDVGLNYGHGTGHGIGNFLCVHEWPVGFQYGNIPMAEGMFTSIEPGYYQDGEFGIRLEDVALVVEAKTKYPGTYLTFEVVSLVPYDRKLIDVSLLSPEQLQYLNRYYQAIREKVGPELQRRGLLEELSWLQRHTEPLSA

[1] = molecular target: rat lung aminopeptidase P (rat) (UniProt Q99MA2); test: cell-based or functional assay
guinea pig serum AmP = settings: in vitro; cited from earlier work
[2] = molecular target: T2, pulmonary endothelial AmP (Rattus norvegicus, UniProt Q99MA2); test: in vivo; settings: read-out: ED50: coinjected dose that reduces hydrolysis of APPBz-3H by half
T2 sequence (Q99MA2 23-650): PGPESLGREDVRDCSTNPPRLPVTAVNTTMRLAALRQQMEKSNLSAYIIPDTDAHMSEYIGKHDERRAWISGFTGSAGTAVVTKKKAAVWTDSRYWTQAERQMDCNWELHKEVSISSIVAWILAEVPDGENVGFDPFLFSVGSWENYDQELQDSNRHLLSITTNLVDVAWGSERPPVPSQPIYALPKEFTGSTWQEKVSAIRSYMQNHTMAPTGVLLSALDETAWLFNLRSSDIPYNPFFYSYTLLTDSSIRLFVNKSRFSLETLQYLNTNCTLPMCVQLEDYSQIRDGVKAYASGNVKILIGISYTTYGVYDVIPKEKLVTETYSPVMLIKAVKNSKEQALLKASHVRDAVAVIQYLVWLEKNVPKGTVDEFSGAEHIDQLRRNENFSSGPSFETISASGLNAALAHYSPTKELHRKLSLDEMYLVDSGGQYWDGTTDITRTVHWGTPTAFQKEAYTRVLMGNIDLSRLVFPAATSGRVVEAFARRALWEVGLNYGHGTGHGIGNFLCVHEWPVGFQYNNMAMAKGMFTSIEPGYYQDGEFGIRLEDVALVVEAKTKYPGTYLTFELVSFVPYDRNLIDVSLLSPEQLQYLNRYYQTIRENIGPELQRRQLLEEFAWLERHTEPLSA
Experimental: (§1) The immediate metabolic fate of the AmP synthetic substrate Arg-Pro-Pro-[^3H]benzylamide (APPBz-^3H) (20 Ci/mmol) during a single transit from the right heart to the left was examined. Effects of increasing quantities of carrier APPBz and alternative AmP substrates such as bradykinin (BK) and des-Arg^9-BK (31) were then measured.

[3] = 2-3 sec, right to left side of the heart; cited from earlier work
[4] = molecular target: T2, pulmonary endothelial AmP; settings: coinjected with tracer APPBz-3H
Experimental: as §1

Molecule: C[C@H](N[C@@H](CCC(=O)Nc1ccccc1)C(=O)O)C(=O)N1CCC[C@H]1C(=O)O (racemic) [RAC-X-65]
- factor by which i.v. BK curves lay to the right of i.a. curves after ACE inhibition (AmP and ACE; after ACE inhibition): about four
- effect of ACE inhibition on BK log dose-response curves (AmP and ACE; long-acting ACE inhibitor, BK i.v. and i.a.): shifted both i.v. and i.a. log dose-response curves leftward

Molecule: CCN1C(=O)C=CC1=O [N-ethylmaleimide]
- inhibition of AmP (AmP): not inhibited

Molecule: CCOC(=O)OC(=O)OCC [diethylpyrocarbonate]
- inactivation of pig kidney AmP (Pig kidney AmP): completely inactivated

Molecule: NC(=O)CI [iodoacetamide]
- inhibition of AmP (AmP): not inhibited

Molecule: O=C(O)c1cc[c]([Hg+])cc1.[OH-] [p-hydroxy-mercuribenzoate]
- inhibition of AmP (AmP; low concentration (~10 nM)): ~70%

Molecule: Arg-Pro-Pro-benzylamide (peptide)
- dose that completely inhibits the hydrolysis of coinjected APPBz-^3H [1]: 2 µmol/kg
- dose that reduces by half the fractional hydrolysis of coinjected APPBz-^3H in a single pulmonary transit in vivo [1]: 42 nmol/kg b.w.

Molecule: Gly-Pro-Hyp-Gly-Ala-Gly (GP[Hyp]GAG) [AAP, putative hormone called antiarrhythmic peptide]
- binding of AAP by AmP (guinea pig serum AmP): high affinity

Molecule: RPPGFSPFR [BK, Arg-Pro-Pro-Gly-Phe-Ser-Pro-Phe-Arg]
- ED50 [2]: 0.013 µmol/kg
- number of half-lifes BK is degraded through in a single transit [3]: 5-8 half-lifes
- degradation of BK by AmP alone (AmP and ACE; computed from 4-fold potentiation, PF=2^n, less than three sec): 75%

Molecule: bradykinin (peptide)
- dose that reduces by half the hydrolysis of coinjected APPBz-^3H in vivo [1]: 13 nmol/kg

Molecule: des-Arg^1-BK: BK fragment formed by AmP; not a substrate but binds to the catalytic site (PPGFSPFR)
- ED50: coinjected dose that reduces hydrolysis of APPBz-3H by half [4]: 30 nmol/kg
- affinity for AmP relative to BK (AmP): as great an affinity for AmP as BK itself

Molecule: des-Arg^9-BK: alternative AmP substrate, bradykinin lacking Arg9 (RPPGFSPF)
- ED50: coinjected dose that reduces hydrolysis of APPBz-3H by half [4]: 107 nmol/kg

Molecule: des-Arg^9-bradykinin (peptide)
- ED50 for inhibition of the hydrolysis of coinjected APPBz-^3H in vivo [1]: 107 nmol/kg
